Among the data in ChEMBL document CHEMBL1124775 (J Med Chem, 1990) are Kd values, retold here.

Structures are written as SMILES.

For the assay, the species on record is Rattus norvegicus. The experiment in a line: Binding of [3H]diprenorphine to rat brain membranes was evaluated and the dissociation constant (KD) was determined. Details: species or system Membrane.

In general, Kd refers to the free concentration of one partner at which half of the binding sites on the other are occupied at equilibrium, for simple one-to-one binding. Higher therefore signals lower affinity. `C=CCN1CC[C@]23c4c5ccc(O)c4O[C@H]2C(=O)CC[C@@]3(O)[C@H]1C5` [NALOXONE] had a Kd of 10 nM.
